“Also recorded” adds a separate entry of the source. Read-outs that look alike come from different tables or passages of the source. Each block holds one compound with its values, some of them ahead of it.
Tests used:
[1] = system: GABAB receptor-mediated outward current in hypothalamic arcuate neurons (membrane associated estrogen receptor); experiment: Whole-cell patch voltage clamp: attenuation of the baclofen-induced GABAB response (GIRK outward current) in hypothalamic slices; format: cell-based, guinea pig
full length (ER)α = molecular target: T1, full length (ER)α (Homo sapiens, UniProt P03372); experiment: Estrogen receptor binding assay (spin column, [3H]estradiol competition)
T1 construct: purchased Pan Vera Corp, Madison, Wis., USA
T1 sequence (P03372 1-595): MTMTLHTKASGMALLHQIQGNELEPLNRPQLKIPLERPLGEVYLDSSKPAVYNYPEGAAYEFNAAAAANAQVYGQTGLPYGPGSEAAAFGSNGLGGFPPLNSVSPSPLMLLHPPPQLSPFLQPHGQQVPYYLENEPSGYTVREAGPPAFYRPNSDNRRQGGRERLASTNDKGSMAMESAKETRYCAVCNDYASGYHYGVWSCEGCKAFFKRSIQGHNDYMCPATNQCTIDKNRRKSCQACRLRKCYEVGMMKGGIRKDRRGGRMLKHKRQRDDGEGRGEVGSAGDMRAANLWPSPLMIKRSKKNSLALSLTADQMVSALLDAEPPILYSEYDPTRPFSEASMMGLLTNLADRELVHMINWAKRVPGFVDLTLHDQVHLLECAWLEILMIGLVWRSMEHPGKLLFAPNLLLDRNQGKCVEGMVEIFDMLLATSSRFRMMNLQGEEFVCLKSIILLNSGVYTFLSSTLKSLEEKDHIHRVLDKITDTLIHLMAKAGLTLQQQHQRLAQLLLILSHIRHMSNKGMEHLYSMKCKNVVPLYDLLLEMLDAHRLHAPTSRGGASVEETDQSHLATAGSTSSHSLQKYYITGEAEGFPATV

uteri = experiment: Uterotropic action (uterine size/weight) in ovariectomized mice; format: in vivo, C57BL/6 mice
Protocol: Wild-type C57BL/6 mice in these studies were obtained from Jackson laboratories. All animals were maintained under controlled temperature (25° C.) and photoperiod conditions (14-h light, 10-h dark; lights on between 0700 and 2100) with food and water ad libitum. Adult mice were ovariectomized under isoflurane anesthesia, and allowed to recover for 1 week. […] The uteri were collected, weighed and fixed in 4% paraformaldehyde for later histological analysis (data not shown).

full length (ER)β = molecular target: T2, full length (ER)β (Homo sapiens, UniProt Q92731); experiment: Estrogen receptor binding assay (spin column, [3H]estradiol competition)
T2 construct: to full length (ER)α or (ER)β*; purchased Pan Vera Corp, Madison, Wis., USA
T2 sequence (Q92731 whole entry): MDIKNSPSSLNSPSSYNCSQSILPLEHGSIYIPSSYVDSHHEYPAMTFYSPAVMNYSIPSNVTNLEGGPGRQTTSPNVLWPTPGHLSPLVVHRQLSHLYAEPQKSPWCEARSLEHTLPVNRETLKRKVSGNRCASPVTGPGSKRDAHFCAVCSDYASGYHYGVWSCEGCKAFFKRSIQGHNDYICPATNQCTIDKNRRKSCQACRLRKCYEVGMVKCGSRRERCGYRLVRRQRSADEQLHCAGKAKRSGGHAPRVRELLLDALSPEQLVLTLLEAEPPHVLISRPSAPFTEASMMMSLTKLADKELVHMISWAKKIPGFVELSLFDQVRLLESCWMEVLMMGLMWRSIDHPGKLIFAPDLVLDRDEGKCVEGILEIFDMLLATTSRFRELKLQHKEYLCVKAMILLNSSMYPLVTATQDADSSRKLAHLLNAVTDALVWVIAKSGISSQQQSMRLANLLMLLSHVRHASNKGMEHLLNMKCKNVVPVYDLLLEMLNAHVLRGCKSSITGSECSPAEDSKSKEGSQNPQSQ

Compound: COc1ccc2c(c1)CC[C@@H]1[C@@H]2CC[C@]2(C)[C@@H](NCCCCCCN3C(=O)CCC3=O)CC[C@@H]12 [Compound U73343]
effect on the 17β-estradiol-induced suppression of the GABAB response ([1]; 10 μM, with 17β-estradiol): no effect

Compound: O=C(c1ccc(OCCN2CCCCC2)cc1)c1c(-c2ccc(O)cc2)sc2cc(O)ccc12 [Raloxifene, raloxifene]
effect on the baclofen (GABAB) response [1]: completely mimicked the actions of 17β-estradiol

Compound: Ac-LGLNLKEYNLV-OH [Gq peptide]
effect on the 17β-estradiol-induced suppression of the GABAB response [1]: significantly blocked

Compound: CN(C)CCCn1cc(C2=C(c3c[nH]c4ccccc34)C(=O)NC2=O)c2ccccc21.Cl [BIS, bisindolylmaleimide I hydrochloride]
effect on the 17β-estradiol-induced suppression of the GABAB response [1]: nearly eliminated the effects of 17β-estradiol

Compound: Cl.Cl.O=S(=O)(NCCNC/C=C/c1ccc(Br)cc1)c1cccc2cnccc12 [Compound H89]
effect on the 17β-estradiol-induced suppression of the GABAB response ([1]; 10 μM, with 17β-estradiol): blocked

Compound: C[C@]12CC[C@@H]3c4ccc(O)cc4C[C@@H](CCCCCCCCC[S+]([O-])CCCC(F)(F)C(F)(F)F)[C@H]3[C@@H]1CC[C@@H]2O (stereo partly shown) [ICI 182, 780]
effect on the baclofen (GABAB) response ([1]; 1 μM, applied alone): no effect
effect on the 17β-estradiol-induced suppression of the GABAB response ([1]; 1 μM, with 17β-estradiol): blocked

Relative binding affinity (ER)α (full length (ER)α; percentage of the potency of 17β-estradiol (IC50 estradiol / IC50 ligand x 100)): 4.3 × 10^−6%
Compound: CC/C(=C(\C(=O)Nc1ccc(OCCN(C)C)cc1)c1ccc(O)cc1)c1ccccc1 [Compound 8, (E,Z)-2-(4-hydroxyphenyl)-3-phenylpent-2-enoic acid [4-(2-dimethylaminoethoxy)-phenyl]amide]
effect on the baclofen (GABAB) response ([1]; 10 nM, applied alone): as efficacious as 100 nM 17β-estradiol; also recorded: stronger activator of this rapid 17β-estradiol response than 17β-estradiol
effect on the baclofen (GABAB) response ([1]; 10 nM, applied alone, listed as compound 8): inhibited the baclofen response
binding affinity for nuclear (ER)α compared to that of 17β-estradiol (full length (ER)α; fold reduction versus 17β-estradiol): approximately one million-fold reduced binding affinity
uterotropic actions (uteri; 2 or 5 μg daily for 2 days): no uterotropic actions

Compound: COc1cccc(-c2cc(=O)c3ccccc3o2)c1N [PD98059]
effect on the 17β-estradiol-induced suppression of the GABAB response ([1]; 10 μM, with 17β-estradiol): did not affect 17β-estradiol inhibition of baclofen responses
R2/R1 (second over first baclofen response) ([1]; PD98059 (10 μM, in the pipette) + 17β-estradiol, baclofen 5 μM): 66.1±11.8%

Compound: N#CC(=C(/N)Sc1ccccc1N)/C(C#N)=C(/N)Sc1ccccc1N [Compound U0126]
effect on the 17β-estradiol-induced suppression of the GABAB response ([1]; 5 μM, with 17β-estradiol): did not affect 17β-estradiol inhibition of baclofen responses

Compound: Cn1c2ccccc2c2c3c(c4c5ccccc5n(CCC#N)c4c21)CNC3=O [Gö6976]
effect on the 17β-estradiol-induced suppression of the GABAB response ([1]; test concentration not given, with 17β-estradiol): without effect

Compound: C[C@]12CC[C@@H]3c4ccc(O)cc4CC[C@H]3[C@@H]1CC[C@@H]2O [17β-estradiol]
R2/R1 (second over first baclofen response) [1]: 58.6±3.4%
decrease in the response to a second application of baclofen [1]: 41%
effect on the baclofen (GABAB) response [1]: no effect

Compound: CC(=O)c1c(O)c(C)c(O)c(Cc2c(O)c3c(c(C(=O)/C=C/c4ccccc4)c2O)OC(C)(C)C=C3)c1O [rottlerin]
effect on the 17β-estradiol-induced suppression of the GABAB response [1]: completely blocked

Compound: C[C@]12CC[C@@H]3c4ccc(O)cc4CC[C@H]3[C@@H]1CC[C@H]2O [17α-estradiol]
effect on the baclofen (GABAB) response [1]: no effect

Compound: COc1ccc2c(c1)CC[C@@H]1[C@@H]2CC[C@]2(C)[C@@H](NCCCCCCN3C(=O)C=CC3=O)CC[C@@H]12 [Compound U73122]
effect on the 17β-estradiol-induced suppression of the GABAB response ([1]; 10 μM, with 17β-estradiol): blocked

Compound: CC/C(=C(\c1ccccc1)c1ccc(/C=C/C(=O)O)cc1)c1ccccc1 [GW-5638]
effect on the baclofen (GABAB) response ([1]; 1 μM, applied alone): significantly more efficacious than 17β-estradiol

Compound: 4-hydroxytamoxifen
block of the baclofen response [1]: 25%
Relative binding affinity (ER)α (full length (ER)α): 36%
Relative binding affinity (ER)β (full length (ER)β): 43%

Compound: CC/C(=C(\c1ccccc1)c1ccc(OCCN(C)C)cc1)c1ccccc1 [Tamoxifen, tamoxifen]
R2/R1 (second over first baclofen response) [1]: 60.4±6.6%
effect on the 17β-estradiol-induced suppression of the GABAB response [1]: did not attenuate the effects of 17β-estradiol
effect on the baclofen (GABAB) response [1]: inactive

Compound: C[C@]12CC[C@@H]3c4ccc(OC(=O)c5ccccc5)cc4CC[C@H]3[C@@H]1CC[C@@H]2O [estradiol benzoate]
uterine size (uteri; 1 μg daily for 2 days, compared with oil vehicle): noticeable increase in uterine size

Compound: Nc1ncnc2c1ncn2[C@@H]1O[C@@H]2COP(O)(=S)O[C@H]2[C@H]1O (stereo partly shown) [Rp-cAMP]
effect on the 17β-estradiol-induced suppression of the GABAB response ([1]; 200 μM, dialysis, with 17β-estradiol): abolished
